Measured values reported in the RepoRT retention time repository (doi:10.1021/acs.analchem.1c00972).

Experiments:
[1] = RP, Waters ACQUITY UPLC BEH C18, 100 × 1 mm, 1.7 µm, 50 °C, 0.3 mL/min, estimated dead time 0.17 min; A: water + 0.1% formic acid + 20 mM ammonium formate; B: methanol + 0.1% formic acid + 20 mM ammonium formate; gradient (min/%B) 0/0 15/100 21/100 22/0 30/0; conditions: stereoisomer not certain
[2] = RP, Waters ACQUITY UPLC BEH C18, 100 × 1 mm, 1.7 µm, 50 °C, 0.3 mL/min, estimated dead time 0.17 min; A: water + 10 mM ammonium bicarbonate; B: 10% water + 90% methanol + 10 mM ammonium bicarbonate; gradient (min/%B) 0/0 15/100 21/100 22/0 30/0; conditions: stereoisomer not certain

CN(C)S(=O)(=O)Nc1ccccc1 [DMSA]
LC retention time [1]: 10.7 min | LC retention time [2]: 10.7 min

CC(=O)c1cc2c(cc1C)C(C)(C)C(C)C2(C)C (configuration not stated) [Phantolide]
LC retention time [1]: 17.5 min | LC retention time [2]: 17.9 min

CS(=O)(=O)c1ccc(C(=O)C2C(=O)CCCC2=O)c(Cl)c1COCC(F)(F)F [Tembotrione]
LC retention time [1]: 13.4 min | LC retention time [2]: 15.6 min

Cc1nccc2c1[nH]c1ccccc12 [Harman]
LC retention time [1]: 9.01 min | LC retention time [2]: 13.4 min

Cn1cnc2c1c(=O)n(CCCC(=O)O)c(=O)n2C [1-(3-carboxypropyl)-3,7-dimethylxanthine]
LC retention time [1]: 8.38 min | LC retention time [2]: 6.58 min

O=C(OC1CCCCC1)c1ccccc1C(=O)OC1CCCCC1 [Dicyclohexylphthalat]
LC retention time [1]: 14.2 min | LC retention time [2]: 12.5 min

COc1ccc2c(c1O)-c1c(OC)c(OC)cc3c1C(C2)N(C)CC3 (single isomer, unassigned; (+)) [(+)-Isocorydin]
LC retention time [1]: 8.65 min | LC retention time [2]: 13.6 min

CCC(=C(c1ccccc1)c1ccc(OCCN(C)C)cc1)c1ccccc1 [Tamoxifen]
LC retention time [1]: 15.8 min | LC retention time [2]: 18.4 min

COc1ccccc1Oc1c(NS(=O)(=O)c2ccc(C(C)(C)C)cc2)nc(-c2ncccn2)nc1OCCO [Bosentan]
LC retention time [1]: 14.9 min | LC retention time [2]: 13.4 min

CCOP(=O)(NC(C)C)Oc1ccc(S(C)(=O)=O)c(C)c1 (configuration not stated) [Fenamiphos-sulfone]
LC retention time [1]: 12.2 min | LC retention time [2]: 12.4 min

CCOP(=O)(OCC)OC(=CCl)c1ccc(Cl)cc1Cl [Chlorfenvinphos]
LC retention time [1]: 15.8 min | LC retention time [2]: 16.1 min

CCCCOCCOCCOCCOCCO [Tetraethyleneglycol monobutyl ether]
LC retention time [1]: 11.7 min | LC retention time [2]: 12 min

CCOC(=O)C(CCc1ccccc1)NC(C)C(=O)N1CCCC1C(=O)O (configuration not stated) [Enalapril]
LC retention time [1]: 11.7 min | LC retention time [2]: 12.2 min

COCC(C)N(C(=O)CS(=O)CC(=O)O)c1c(C)csc1C (configuration not stated) [Dimethenamid M31]
LC retention time [1]: 11.4 min | LC retention time [2]: 10.6 min

CN(C)C(=O)C(CCN1CCC(O)(c2ccc(Cl)cc2)CC1)(c1ccccc1)c1ccccc1 [Loperamide]
LC retention time [1]: 13.7 min | LC retention time [2]: 16.3 min

O=C1C(O)Oc2ccccc2N1O (configuration not stated) [DIBOA]
LC retention time [1]: 7.76 min | LC retention time [2]: 3.05 min

CN(C)CCOC(C)(c1ccccc1)c1ccccn1 (configuration not stated) [Doxylamine]
LC retention time [1]: 8.49 min | LC retention time [2]: 14 min

CCCCOC(=O)CCCCCCCCC(=O)OCCCC [Dibutyl sebacate]
LC retention time [1]: 18.1 min | LC retention time [2]: 18.5 min

Cc1cc(C)nc(NC(=O)NS(=O)(=O)c2ccccc2C(=O)OC2COC2)n1 [Oxasulfuron]
LC retention time [1]: 11.3 min | LC retention time [2]: 9.07 min

CCCNC(C)C(=O)Nc1ccccc1C (configuration not stated) [Prilocaine]
LC retention time [1]: 8.85 min | LC retention time [2]: 13.8 min

CCN(CC)CC#CCOC(=O)C(O)(c1ccccc1)C1CCCCC1 (configuration not stated) [Oxybutynin]
LC retention time [1]: 13.6 min | LC retention time [2]: 17.2 min

O=C(Nc1ccc([N+](=O)[O-])cc1Cl)c1cc(Cl)ccc1O [Niclosamide]
LC retention time [1]: 16.7 min | LC retention time [2]: 13.6 min

CNC(CC(C)C)C(=O)NC1C(=O)NC(CC(N)=O)C(=O)NC2C(=O)NC3C(=O)NC(C(=O)NC(C(=O)O)c4cc(O)cc(O)c4-c4cc3ccc4O)C(O)c3ccc(c(Cl)c3)Oc3cc2cc(c3OC2OC(CO)C(O)C(O)C2OC2CC(C)(N)C(O)C(C)O2)Oc2ccc(cc2Cl)C1O (configuration not stated) [Vancomycin]
LC retention time [1]: 7.04 min | LC retention time [2]: 8.6 min

CC(C)NCC(O)COc1ccc(COCCOC(C)C)cc1 (configuration not stated) [Bisoprolol]
LC retention time [1]: 11.1 min | LC retention time [2]: 13.8 min

COC(C)C(O)(C(=O)OCC1=CCN2CCC(O)C12)C(C)(C)O (configuration not stated) [Europine]
LC retention time [1]: 6.72 min | LC retention time [2]: 9.86 min

S=c1[nH]c2ccccc2s1 [2-Mercaptobenzothiazole]
LC retention time [1]: 11 min | LC retention time [2]: 8.11 min

N#Cc1c(Cl)c(Cl)c(O)c(C(N)=O)c1Cl
LC retention time [1]: 10 min | LC retention time [2]: 8.11 min

CCC1OC(=O)C(C)C(OC2CC(C)(OC)C(O)C(C)O2)C(C)C(OC2OC(C)CC(N(C)C)C2O)C(C)(O)CC(C)CN(C)C(C)C(O)C1(C)O (configuration not stated) [Azithromycin]
LC retention time [1]: 11.2 min | LC retention time [2]: 17.4 min

O=C(O)c1nc(Cl)ccc1Cl [Clopyralid]
LC retention time [1]: 6.09 min | LC retention time [2]: 3.37 min

NCC(O)COc1ccc(CC(N)=O)cc1 (configuration not stated) [Atenolol-desisopropyl]
LC retention time [1]: 12.3 min | LC retention time [2]: 5.61 min

O=[N+]([O-])c1ccc(O)c([N+](=O)[O-])c1 [2,4-Dinitrophenol]
LC retention time [1]: 9.71 min | LC retention time [2]: 6.21 min
